Like-named read-outs stand apart in the source and are kept apart here.
Tests used:
[1] = target: T1, hCA IX (Homo sapiens, UniProt Q16790); assay: stopped flow CO2 hydrase assay; assay type: biochemical; settings: for Selectivity ratio II/IX: KI hCA II / KI hCA IX; for Ki: mean from 3 assays
T1 construct: made in house
Protocol: (§1) Carbonic anhydrase inhibition assay
(§2) The carbonic anhydrase catalyzed CO2 hydration actions for the quinazoline-based […]
(§3) Photophysics stopped-flow, as described previously. The enzymes are recombinant proteins prepared in our lab. Phenol red (at a concentration of 0.2 mM) has been used as indicator, working at the absorbance maximum of 557 nm, with 20 mM Hepes (pH 7.5) as buffer, and 20 mM Na2SO4 (for maintaining constant the ionic strength), following the initial rates of the CA- […]
(§4) 1.7 to 17 mM for the determination of the kinetic parameters and inhibition constants. For each […]
(§5) initial velocity. The uncatalyzed rates were determined in the same manner and subtracted from the total observed rates. Stock solutions of inhibitor (0.1 mM) were prepared in distilled-deionized water and dilutions up to 0.01 nM were done thereafter with the assay buffer. Inhibitor and enzyme solutions were preincubated together for 15 min at room temperature prior to assay, in order to allow for the formation of the E-I complex. The inhibition constants were obtained by non-linear least-squares methods using PRISM 3 and the Cheng-Prusoff equation, and represent the mean from at least three different determinations.

[2] = target: T2, hCA I (Homo sapiens, UniProt P00915); assay: stopped flow CO2 hydrase assay; assay type: biochemical; settings: mean from 3 assays
T2 construct: made in house
Protocol: as §1, §2, §3, §4, §5

[3] = target: T3, hCA XII (Homo sapiens, UniProt O43570); assay: stopped flow CO2 hydrase assay; assay type: biochemical; settings: for Selectivity ratio I/XII: KI hCA I / KI hCA XII; for Selectivity ratio II/XII: KI hCA II / KI hCA XII; for Ki: mean from 3 assays
T3 construct: made in house
Protocol: as §1, §2, §3, §4, §5

[4] = target: T4, hCA II (Homo sapiens, UniProt P00918); assay: stopped flow CO2 hydrase assay; assay type: biochemical; settings: mean from 3 assays
T4 construct: made in house
Protocol: as §1
as §3, with “The carbonic anhydrase catalyzed CO2 hydration actions for the quinazoline-based carboxylic acid derivatives (6a-c, 7a-c and 8a-c) were assayed utilizing an instrument of Applied Photophysics” for “Photophysics”
as §5, with “1.7 to 17 mM for the determination of the kinetic parameters and inhibition constants. For each inhibitor at least six traces of the initial 5-10% of the reaction have been used for determining the initial” for “initial”

[5] = target: T1, hCA IX; settings: cited from earlier work
[6] = target: T3, hCA XII; settings: cited from earlier work

T3 sequence (O43570 25-354): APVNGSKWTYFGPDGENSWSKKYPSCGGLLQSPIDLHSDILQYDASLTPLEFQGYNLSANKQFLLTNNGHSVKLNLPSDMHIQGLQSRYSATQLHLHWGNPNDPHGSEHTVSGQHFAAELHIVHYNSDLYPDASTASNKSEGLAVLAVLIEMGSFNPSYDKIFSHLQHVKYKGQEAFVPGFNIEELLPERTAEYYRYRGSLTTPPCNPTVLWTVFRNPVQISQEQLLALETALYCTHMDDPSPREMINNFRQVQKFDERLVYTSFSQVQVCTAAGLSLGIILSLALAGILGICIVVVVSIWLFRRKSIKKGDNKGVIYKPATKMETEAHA
T2 sequence (P00915 whole entry): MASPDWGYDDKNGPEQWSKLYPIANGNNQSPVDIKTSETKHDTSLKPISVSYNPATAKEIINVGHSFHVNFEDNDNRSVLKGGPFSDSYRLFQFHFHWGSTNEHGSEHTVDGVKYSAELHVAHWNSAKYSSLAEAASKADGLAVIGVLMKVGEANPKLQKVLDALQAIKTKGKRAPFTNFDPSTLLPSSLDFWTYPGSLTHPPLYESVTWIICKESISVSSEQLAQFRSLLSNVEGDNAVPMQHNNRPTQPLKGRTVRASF

Cc1cccc(-c2nc(Nc3cccc(C(=O)O)c3)c3ccccc3n2)c1 [7a, 3-((2-(m-Tolyl)quinazolin-4-yl)amino)benzoic acid]
Selectivity ratio II/IX [1]: 0.89
Ki [1]: 29.3 µM
Ki [2]: > 100 µM
Selectivity ratio I/XII [3]: 20.8
Selectivity ratio II/XII [3]: 5.42
Ki [3]: 4.8 µM
Ki [4]: 26 µM

COc1ccc(-c2nc(Nc3cccc(C(=O)O)c3)c3ccccc3n2)cc1 [7c, 3-((2–(4-Methoxyphenyl)quinazolin-4-yl)amino)benzoic acid]
Selectivity ratio II/IX [1]: 2.72
Ki [1]: 31.6 µM
Ki [2]: > 100 µM
Selectivity ratio II/XII [3]: 178.75
Ki [3]: 0.48 µM
melting point: 244 to 246 °C
Ki [4]: 85.8 µM

COc1ccc(-c2nc(Nc3ccc(C(=O)O)cc3)c3ccccc3n2)cc1 [8c, 4-((2–(4-Methoxyphenyl)quinazolin-4-yl)amino)benzoic acid]
Selectivity ratio I/IX ([1]; KI hCA I / KI hCA IX): 14.7
Selectivity ratio II/IX [1]: 1.02
Ki [1]: 4.5 µM
Ki [2]: 66.3 µM
Selectivity ratio I/XII [3]: 265.2
Selectivity ratio II/XII [3]: 18.40
Ki [3]: 0.25 µM
melting point: > 300 °C
Ki [4]: 4.6 µM

O=C(O)c1ccc(N/C=C/C(=O)c2ccc(F)cc2)cc1 [III]
Ki [5]: 0.92 µM
Ki [6]: 1.1 µM

Cc1c(NC(=O)Nc2cccc(C(=O)O)c2)oc2ccccc12 [I]
Ki [5]: 0.79 µM
Ki [6]: 2.3 µM
